Reference: patent US20230123104A1, “CRYSTAL OF TRICYCLIC COMPOUND ACTING ON CRBN PROTEIN AND PREPARATION METHOD THEREFOR” (CHIA TAI TIANQING PHARMACEUTICAL GROUP CO., LTD., priority 2020, published 2023)

Columns and labels:
[1] = tested on: human myeloma MM.1S cells; test: In vivo pharmacodynamic study in subcutaneous xenograft tumor CB-17 SCID model; design: species or system CB-17 SCID mice; conditions: 5 mg/kg oral, twice daily
Protocol: Cell culturing: human multiple myeloma cells MM.1S (ATCC® CRL-2974™) were cultured in vitro, in a semi-suspension manner, with an ATCC-formulated RPMI-1640 medium containing 10% fetal calf serum, 100 U/mL penicillin and 100 μg/mL streptomycin in an incubator at 37° C. with 5% CO2. Passages were performed twice a week. At a required number, the cells were taken, counted and inoculated.
Animals: CB-17 SCID mice, female, 6-8 weeks old, weighing 18-20 g.
0.2 mL (5×10^6 cells) of MM.1S cells (along with matrigel in a volume ratio of 1:1) was subcutaneously inoculated on the right back of each mouse, and the mice were divided into groups for administration after the mean tumor volume was approximately 130 mm^3. Seven days constitute an administration cycle, twice daily with a 12 h interval, and the compound of formula (I) was orally administered for a total of four cycles. The compound of formula (I) was administered at a dose of 5 mg/kg, tumor volume was measured twice weekly with a two-dimensional caliper, and the volume was measured in cubic millimeters and calculated according to the following formula: V=0.5a×b^2, where a and b are the long and short diameters, respectively, of the tumor. Anti-tumor efficacy was determined by dividing the mean tumor increase volume of animals treated with the compound of formula (I) by the mean tumor increase volume of untreated animals.

[2] = tested on: multiple myeloma cell line NCI-H929; test: Antiproliferative effect, CellTiter-Glo cell viability assay, NCI-H929; type: cell-based
Protocol: (§1) In this experiment, the inhibition of cell proliferation in multiple myeloma cell lines MM.1S and NCI-H929 by the compound of formula (I) was detected.
(§2) The tumor cell lines were cultured in an incubator at 37° C. with 5% CO2 under the culture conditions described above. Periodical passaging was performed, and cells growing at log phase were used for plating.
(§3) (1) Cells were stained with trypan blue and viable cells were counted.
(§4) (2) The cell concentration was adjusted to an appropriate level.
(§5) (3) 90 μL of cell suspension was added to each well in the culture plate and cell-free medium was added to the blank control wells according to the table above.
(§6) (4) The culture plate was incubated overnight in an incubator at 37° C. with 5% CO2 and 100% relative humidity. […]
(§7) The following procedure was performed according to the instructions of Promega CellTiter-Glo luminescence cell viability assay kit (Promega-G7573). […]
(§8) (8) The culture plate was placed at room temperature for 10 min to stabilize the luminescence signals.
(§9) (9) The luminescence signals were detected on 2104 EnVision plate reader.
(§10) Inhibition rates of the compound of formula (I) at different concentrations were calculated in Excel, followed by plotting the inhibition curves and calculating relevant parameters including minimum inhibition rate, maximum inhibition rate and IC50 using GraphPad Prism software.

[3] = Pharmacokinetic evaluation in rats; type: in vivo, SD male rats
Text: (§11) The test animals in the study were SD male rats, and the LC/MS/MS method was used to quantitatively determine the drug concentration in the plasma of the rats at different time points after intravenous injection or oral administration of the compound of formula (I), thus evaluating the pharmacokinetic characteristics of the compound of formula (I) in the rats.
Sprague Dawley (SD) rats (male, 200-300 g, 7-10 weeks old, Beijing Vital River or Shanghai SLAC).
(§12) Clear solution of the compound of formula (I) was injected into SD rats (fasted overnight) via the tail vein or administered intragastrically to SD rats (fasted overnight). For intravenous injection, 200 μL of blood was each collected by jugular vein puncture at 0 h (before injection) and 0.0833 h, 0.25 h, 0.5 h, 1 h, 2 h, 4 h, 6 h, 8 h and 24 h (after injection), and then placed in an anticoagulation tube added with EDTA-K2 (Jiangsu KANGJIAN Medical Apparatus Co., Ltd.), and the mixture was thoroughly vortex-mixed at 4° C. and centrifuged at 13000 rpm for 10 min; for intragastric administration, blood was collected by jugular vein puncture at 0 h (before administration) and 0.5 h, 1 h, 2 h, 4 h, 6 h, 8 h and 24 h (after administration), and then placed in an anticoagulation tube added with EDTA-K2 (Jiangsu KANGJIAN Medical Apparatus Co., Ltd), and the mixture was thoroughly vortex-mixed and centrifuged at 13000 rpm for 10 min. The plasma concentration was measured by LC-MS/MS, and the relevant pharmacokinetic parameters were calculated using WinNonlin™ Version 6.3 (Pharsight, Mountain View, Calif.), a pharmacokinetic software, with a non-compartmental model linear-log trapezoidal method.

[4] = Pharmacokinetic evaluation in mice; type: in vivo, C57BL male mice
Text: as §11, with “C57BL” for “SD”, “mice,” for “rats,”, “mice” for “rats”, “test compound,” for “compound of formula (I),”, “mice.” for “rats.”
C57Balb/C (C57) mice (male, 20-30 g, 7-10 weeks old, Beijing Vital River or Shanghai SLAC).
as §12, with “Clear or suspended” for “Clear”, “C57 mice” for “SD rats”, “Ltd.),” for “Ltd),”

[5] = tested on: multiple myeloma cell line MM.1S; test: Antiproliferative effect, CellTiter-Glo cell viability assay, MM.1S; type: cell-based, human
Protocol: as §1, §2, §3, §4, §5, §6, §7, §8, §9, §10

[6] = intragastric administration (10 mg/kg)
[7] = intravenous injection (2 mg/kg)

O=C1CCC(c2noc3ccc4[nH]ccc4c23)C(=O)N1 (centres unmarked) [Compound of formula (I)]
Tumor volume (Day 0) ([1]; Day 0): 131 ± 12 mm^3 | TGI (Day 24) ([1]; Day 24): 105% | Tumor volume (Day 24) ([1]; Day 24): 14 ± 5 mm^3 | IC50 ([2]; Homo sapiens, 120 h, NCI-H929, co-incubated 5 days, CellTiter-Glo): 500 pM | inhibitory effect on cell proliferation (conclusion) ([2]; NCI-H929): excellent inhibitory effect | Area under plasma concentration-time curve (0-inf) [3, 6]: 26.34 µM·h | Bioavailability F [3, 6]: 66.5% | Peak concentration [3, 6]: 12.75 µM | Time to peak [3, 6]: 0.50 h | Area under plasma concentration-time curve (0-inf) [3, 7]: 7.92 µM·h | Area under plasma concentration-time curve (0-inf) [4, 7]: 5.34 µM·h | Area under plasma concentration-time curve (0-inf) ([4]; oral administration (10 mg/kg)): 12.29 µM·h | Bioavailability F ([4]; oral administration (10 mg/kg)): 46.1% | Peak concentration ([4]; oral administration (10 mg/kg)): 10.52 µM | Time to peak ([4]; oral administration (10 mg/kg)): 0.25 h | inhibitory effect on cell proliferation (conclusion) [5]: excellent inhibitory effect | IC50 ([5]; Homo sapiens, MM1.S, 120 h, co-incubated 5 days, CellTiter-Glo): 400 pM
